From patent US10874743B2, “IRAK degraders and uses thereof” (Kymera Therapeutics, Inc., priority 2017, dated 2020)

Molecular target: T1, IRAK4 (Homo sapiens, UniProt Q9NWZ3)
T1 sequence (Q9NWZ3 1-460): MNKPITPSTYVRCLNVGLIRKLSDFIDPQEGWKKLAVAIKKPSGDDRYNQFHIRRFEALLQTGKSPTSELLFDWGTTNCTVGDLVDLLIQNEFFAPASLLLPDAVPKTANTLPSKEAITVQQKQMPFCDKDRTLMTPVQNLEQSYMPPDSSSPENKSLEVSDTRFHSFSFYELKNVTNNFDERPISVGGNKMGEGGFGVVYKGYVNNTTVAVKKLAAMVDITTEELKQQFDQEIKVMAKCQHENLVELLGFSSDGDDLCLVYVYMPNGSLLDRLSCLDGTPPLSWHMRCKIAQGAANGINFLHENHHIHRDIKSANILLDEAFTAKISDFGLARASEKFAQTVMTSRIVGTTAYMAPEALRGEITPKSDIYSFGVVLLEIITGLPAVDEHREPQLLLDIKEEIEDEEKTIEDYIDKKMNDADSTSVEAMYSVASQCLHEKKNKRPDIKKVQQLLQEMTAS
Experiment: OCI-LY-10 degradation assay (western blot, % IRAK4 degraded after 4 hours)
Format: cell-based
Set-up: endogenous in cells; host or cells: OCI-LY10
Conditions: OCI-LY10 cells; for OCI-LY10 % IRAK4 Degradation (0.01 uM) / OCI-LY10 % IRAK4 Degradation (0.1 uM) / OCI-LY10 % IRAK4 Degradation (1 uM): 4 hours; for OCI-LY10 % IRAK4 Degradation (0.01 uM): 0.01 uM compound; for OCI-LY10 % IRAK4 Degradation (0.1 uM): 0.1 uM compound; for OCI-LY10 % IRAK4 Degradation (1 uM): 1 uM compound; for OCI-LY10 % IRAK4 Degradation: IRAK4 degraded after 4 hours, western blot
Procedure: Compounds were reconstituted in DMSO to make stock solutions at concentration of 60 mM. THP-1 and OCI-LY10 cells were maintained in RPMI-1640 medium containing 10% FBS, 0.5 μM 2-ME or 20% FBS, 55 μM 2-ME, and 1% L-Glutamine respectively.
Cells were seeded into 6-well plates with 5e6 cells per well. 200 μL of diluted compounds were added to cells to the final concentration of 0.003-10 μM. After 4 or 24 hour-incubation at 37° C., cells were collected into 2 mL Eppendorf tubes and centrifuged at 1,000 rpm for 5 min. The cell pellets were washed with 1×DPBS once and resuspended in 60 μL lysis buffer. The cells were lysed on ice for 10 min, then centrifuged at 14,000 rpm for 10 min at 4° C. and the supernatants were collected for western blots. For THP-1 cells, the lysis buffer contained 40 mM pH 7.4 HEPES, 140 mM NaCl, 2.5 mM EDTA, 1% NP-40, 0.1% SDS, and protease inhibitor cocktail (Roche, Cat. No. 05892791001). For OCI-LY10 cells, RIPAbuffer (Thermo Fisher, 89900) with Halt Protease and Phosphatase Inhibitor Cocktail (Thermo Fisher, 78446) was applied.
The protein concentration of cell lysates was quantified with Pierce™ BCA Protein Assay Kit (Pierce, 23227). Albumin standards at different concentrations were prepared, involving 2,000 ug/mL, 1,500 ug/mL, 1,000 ug/mL, 750 ug/mL, 500 ug/mL, 250 ug/mL, 125 ug/mL, and 25 ug/mL. BCA working reagents were prepared by mixing BCA reagent A with reagent B in 50:1 ratio. 200 μL of the BCA working reagents were added to 25 μL of BCA standard or cell lysates in microplate, and mixed thoroughly on a plate shaker for 30 seconds. After incubation at 37° C. for 30 min, the absorbance of samples at 562 nm were measured with EnVision Plate Reader.
Protein lysates were prepared in NuPAGE™ LDS sample buffer and NuPAGE™ sample reducing agent, and incubated at 95° C. for 5 min. For western blots, 20-25 μg of total proteins were resolved in 4-12% Bis-Tris gels (Introgen, WG1403A) or 10% Bis-Tris Midi gels (Invitrogen, WG1202BOX) running with 1×MOPS SDS running buffer (Invitrogen, NP0001) or 1×MES SDS running buffer (Invitrogen, NP0002). The proteins were transferred to low fluorescence PVDF membranes using the Trans-Blot Turbo Transfer System. Membranes were then blocked in Odyssey blocking buffer at RT for 1 h followed by primary incubation at 4° C. overnight. The primary antibodies were IRAK1 rabbit monoclonal antibody (CST, #4504S, 1:500), IRAK3 rabbit polyclonal antibody (CST, #4369, 1:500), IRAK4 rabbit polyclonal antibody (CST, #4363S, 1:1,000), MyD88 rabbit monoclonal antibody (Abcam, Ab133739, 1:2,000), j3-actin mouse monoclonal antibody (Sigma, A5441, 10,000), and Gapdh mouse monoclonal antibody (Millipore, MAB374, 1:5,000). Membranes were washed three times with 1×TBST, and then incubated with IR Dye 800 CW Goat anti-rabbit (Licor, #926-32211) and IR Dye 700 CW Goat anti-mouse (Licor, #926-68070) secondary antibodies in 1:10,000 dilution at RT for 1 h. The western blot images were obtained using Odyssey Imaging System.
OCI-LY-10 results at 4 hours. The letter codes indicate the percentage of IRAK4 degraded after 4 hours: A (>50% degradation), B (>20-50% degradation) and C (<20% degradation)
OCI-LY-10 results at 4 hours. The letter codes for % IRAK4 degradation indicate the percentage of IRAK4 degraded after 4 hours across three different concentrations: A (>50% degradation), B (>20-50% degradation) and C (<20% degradation).

OCI-LY10 % IRAK4 Degradation (0.01 uM)	OCI-LY10 % IRAK4 Degradation (0.1 uM)	OCI-LY10 % IRAK4 Degradation (1 uM)	OCI-LY10 % IRAK4 Degradation	SMILES
C (<20% degradation)	C (<20% degradation)	C (<20% degradation)		CN(CCOCCCc1cccc2c1C(=O)N(C1CCC(=O)NC1=O)C2=O)Cc1ccc(-n2cc(NC(=O)c3coc(-c4ccncc4)n3)c(C(F)F)n2)cc1 (centres unmarked) [I-363]
C (<20% degradation)	C (<20% degradation)	B (>20-50% degradation)		CN(CCOCCCc1ccc2c(c1)C(=O)N(C1CCC(=O)NC1=O)C2=O)Cc1ccc(-n2cc(NC(=O)c3coc(-c4ccncc4)n3)c(C(F)F)n2)cc1 (centres unmarked) [I-377]
C (<20% degradation)	C (<20% degradation)	A (>50% degradation)		O=C1CCC(N2C(=O)c3cccc(OCc4cnnn4CCOCCOCCNCn4cc(NC(=O)c5coc(-c6ccnc(NCC7CC7)c6)n5)c(C(F)F)n4)c3C2=O)C(=O)N1 (centres unmarked) [I-383]
C (<20% degradation)	B (>20-50% degradation)	B (>20-50% degradation)		CN(CCCCCCc1cccc2c1C(=O)N(C1CCC(=O)NC1=O)C2=O)Cc1ccc(-n2cc(NC(=O)c3coc(-c4ccnc(NCC5CC5)c4)n3)c(C(N)=O)n2)cc1 (centres unmarked) [I-314]
B (>20-50% degradation)	B (>20-50% degradation)	B (>20-50% degradation)		CN(CCCc1ccc2c(c1)C(=O)N(C1CCC(=O)NC1=O)C2=O)Cc1ccc(-n2cc(NC(=O)c3coc(-c4ccnc(NCC5CC5)c4)n3)c(C(F)F)n2)cc1 (centres unmarked) [I-369]

Second part, the molecule before the results:

SMILES	OCI-LY10 % IRAK4 Degradation (0.01 uM)	OCI-LY10 % IRAK4 Degradation (0.1 uM)	OCI-LY10 % IRAK4 Degradation (1 uM)	OCI-LY10 % IRAK4 Degradation
O=C1CCC(N2C(=O)c3cccc(NCCOCCN4CCO[C@H](CNC(=O)c5ccc(-n6cc(NC(=O)c7coc(-c8ccnc(NCC9CC9)c8)n7)c(C(F)F)n6)cc5)C4)c3C2=O)C(=O)N1 (some centres unmarked) [I-250]	C (<20% degradation)	A (>50% degradation)	A (>50% degradation)	
NC(=O)[C@H](O)C[C@H]1CCc2sc3ncnc(O[C@H]4CC[C@H](N5CCN(CCOCCOCCNc6cccc7c6C(=O)N(C6CCC(=O)NC6=O)C7=O)CC5)CC4)c3c21 (stereo partly drawn) [I-91, (2R)-3-[(8R)-1-[4-[4-[2-[2-[2-[[2-(2,6-dioxo-3-piperidyl)-1,3-dioxo-isoindolin-4-yl]amino]ethoxy]ethoxy]ethyl]piperazin-1-yl]cyclohexoxy]-7,8-dihydro-6H-cyclopenta[4,5]thieno[1,2-c]pyrimidin-8-yl]-2-hydroxy-propanamide]				C (<20% degradation)
CN(CCCCCCCCCc1cccc2c1C(=O)N(C1CCC(=O)NC1=O)C2=O)C(=O)c1ccc(-n2cc(NC(=O)c3coc(-c4ccnc(NCC5CC5)c4)n3)c(C(N)=O)n2)cc1 (centres unmarked) [I-230]	C (<20% degradation)	C (<20% degradation)	C (<20% degradation)	
NC(=O)c1nn(-c2ccc(C(=O)NCCOCCOCCOCCOCC#Cc3cccc4c3C(=O)N(C3CCC(=O)NC3=O)C4=O)cc2)cc1NC(=O)c1coc(-c2ccnc(NCC(F)(F)F)c2)n1 (centres unmarked) [I-236]	C (<20% degradation)	B (>20-50% degradation)	A (>50% degradation)	
O=C1CCC(N2C(=O)c3cccc(N4CCN(CCOCCOCCOCCNC(=O)c5ccc(-n6cc(NC(=O)c7coc(-c8ccnc(NCC9CC9)c8)n7)c(C(F)F)n6)cc5)CC4)c3C2=O)C(=O)N1 (centres unmarked) [I-275]	C (<20% degradation)	B (>20-50% degradation)	A (>50% degradation)	
NC(=O)c1nn(-c2ccc(C(=O)NCC#CC#CCNc3cccc4c3C(=O)N(C3CCC(=O)NC3=O)C4=O)cc2)cc1NC(=O)c1coc(-c2ccnc(NCC(F)(F)F)c2)n1 (centres unmarked) [I-177, N-[3-carbamoyl-1-[4-[6-[[2-(2,6-dioxo-3-piperidyl)-1,3-dioxo-isoindolin-4-yl]amino]hexa-2,4-diynylcarbamoyl]phenyl]pyrazol-4-yl]-2-[2-(2,2,2-trifluoroethylamino)-4-pyridyl]oxazole-4-carboxamide]				C (<20% degradation)
NC(=O)c1nn(Cc2cn(CCOCCOCCNc3cccc4c3C(=O)N(C3CCC(=O)NC3=O)C4=O)nn2)cc1NC(=O)c1coc(-c2ccnc(NCC3CC3)c2)n1 (centres unmarked) [I-304, N-[3-carbamoyl-1-[[1-[2-[2-[2-[[2-(2,6-dioxo-3-piperidyl)-1,3-dioxo-isoindolin-4-yl]amino]ethoxy]ethoxy]ethyl]triazol-4-yl]methyl]pyrazol-4-yl]-2-[2-(cyclopropylmethylamino)-4-pyridyl]oxazole-4-carboxamide]	C (<20% degradation)	C (<20% degradation)	C (<20% degradation)	
NC(=O)[C@@H](O)C[C@H]1CCc2sc3ncnc(OC4CCC(N5CCN(C(=O)COCCOCCNc6cccc7c6C(=O)N(C6CCC(=O)NC6=O)C7=O)CC5)CC4)c3c21 (stereo partly drawn) [I-160, (2S)-3-[(8R)-1-[4-[4-[2-[2-[2-[[2-(2,6-dioxo-3-piperidyl)-1,3-dioxo-isoindolin-4-yl]amino]ethoxy]ethoxy]acetyl]piperazin-1-yl]cyclohexoxyl-7,8-dihydro-6H-cyclopenta[4,5]thieno 1,2-c]pyrimidin-8-yl]-2-hydroxy-propanamide]				C (<20% degradation)
NC(=O)c1nn(C2CCC(C(=O)NCCOCCOCCNc3cccc4c3C(=O)N(C3CCC(=O)NC3=O)C4=O)CC2)cc1NC(=O)c1coc(-c2ccnc(NCC(F)(F)F)c2)n1 (centres unmarked) [I-139]				B (>20-50% degradation)
CC(C)(OCCOCCOCCOCCOCCNc1cccc2c1C(=O)N(C1CCC(=O)NC1=O)C2=O)C(F)CNC(=O)c1cnc(Nc2ccc3cnccc3n2)cc1NC1CC1 (centres unmarked) [I-64]				C (<20% degradation)
